From patent US20070258899A1, “Diagnostic and therapeutic agents” (KARYON-CTT LTD, priority 2006, published 2007)
Starred links: 1 amine or outer side, 2 acyl side, 3 side chain; linkers in the order of their positions; H or OH if unused. Positions of bridges follow the written chain, without caps; N, C: chain ends. Non-standard residues stand in square brackets, D forms with d. Residues, ends and D or L forms follow the SMILES beside them. No end group written: not given here. Cysteamide = C(CS[*:3])N[*:1]; AEEEA = NCCOCCOCCOCC(=O)O

Columns and labels:
LoVo cell line = assay: Cytotoxicity assay (MTT); type: cell-based, human
Experimental: […] The measurement of cell viability was done with MTT (Thiazolyl blue, Sigma M-5655) tetrazolium salt. MTT is cleaved to water-insoluble formazan dye by the “succinate-tetrazolium reductase” system, which is active only in viable cells. After formazan was solubilized by 10% SDS-0.01 M HCl, it was quantified in an ELISA spectrometer (ThermoLabsystems Multiscan EX) at 560 nm. CuSAO2 [trans-bis(salicylaldoximato)copper(II)] 7.5 μg/ml was used as a positive control for 100% toxicity.
Procedure. Cells were trypsinized from the cell culture dish (ø9 cm) with 1 ml of TE for 1-5 minutes and moved to a 50 ml Falcon tube. After this the volume was increased to 20 ml of cell line specific medium and cells were transferred to a Bürker chamber and diluted in medium to a concentration of 2500-3500 cells/100 μl depending on cell line. […]
Next day 40 μl of medium was removed from all wells except from the ones with only medium and one column with cells. […] The next day the cell morphology was analyzed with a microscope. […]
The next day, the MTT assay described above was performed. The viable count (v.c.) was calculated as: [formula]

[1] = tested on: lung metastases of colorectal cancer patients; assay: Bio-panning of phage display library on clinical tumor samples; type: binding, human; details: phage-displayed CX7C library; ex vivo panning round three
Excerpt: Phage display library. Standard procedures according to Smith and Scott (ibid.) were used. Phage display library used for screening of clinical samples was cloned in fUSE5 vector and was of the cyclic structure CX7C. The E. coli strain K91kan was used as host for phage amplification.
Phage display on clinical tumor samples. Tissue samples were surgically removed from lung metastases of colorectal cancer patients. Part of the sample was taken for pathological examination, rest was placed in ice cold DMEM-PI (Dulbecco's medium containing protease inhibitors PI; 10 mM PMSF (Phenyl-methyl-sulphonyl-fluoride), Aprotinin (10 mg/ml) Leupeptin (10 mg/ml)). Tissue samples were minced with a razor blade in a small cell culture plate in 1 ml of DMEM containing protease inhibitors. The samples were transferred to an eppendorf tube and washed with 1 ml DMEM-PI.
Samples were centrifuged at 5000 rpm for 4 min and were then incubated with […] transducing units of phage in 1 ml DMEM-PI at 25° C. for 15 min.
1 ml K91kan bacteria, OD600: 1-1.5, in LB containing 100 μg/ml kanamycin (kan) were infected with the washed pellet containing selectively attached phage particles at 25° C. for 25 min. […]
Then the bacteria were pelleted at 5000 rpm for 15 min. […] For the next rounds of bio-panning of clinical samples the titre of the TBS phage stock was determined as described above. […]

Athymic nude mice = assay: In vivo toxicity study; details: 1 mg i.v. into tail vein; observed 30 min after injection and 15 min on the following day
Experimental: 1 mg of targeting unit HP203 (described in Example 2) was injected i.v. into the tail vein of three Athymic nude mice in a volume of 100 μl of sterile physiological saline. The behavior of mice was observed during 30 min right after injection and during 15 min on the following day (comparison to non-injected mouse).

HCT-15-LM1 cell line = assay: Cell binding assay to immobilized targeting agents; type: cell-based, human; details: wells coated at 30 μg/ml, 75000 cells, 30 minutes at 37° C., MTT detection
Excerpt: The colorectal cancer cell line HCT-15-LM1 was developed as follows. The cell culture was started with cancer cells from lung metastases which had developed after injection of human colorectal cancer HCT-15 cells into the bloodstream of a mouse. The inoculation procedure was then repeated with HCT-15-LM1 cells leading to the establishment of another metastatic cell line, HCT-15-LM2.
(§1) Preparation of plates for assays. Wells of Reacti-Bind Maleimide activated clear strip plate (Pierce, Prod#. 15150) were coated with targeting agents of this invention at a concentration of 30 μg/ml. The incubation was carried out of overnight at 20° C. The binding buffer containing unbound peptide was removed from the wells.
(§2) The wells were blocked with blocking buffer (0.5% BSA, 0.05% Tween20 in phosphate buffer saline (PBS). PBS was prepared as follows: 40 g of NaCl, 1 g of KCl, 7 g of Na2HPO4×2H2O and 1 g of KH2PO4 were dissolved in 1000 ml of deionized H2O. Blank wells as controls were prepared by treating empty wells with blocking buffer. The plates were incubated 1 hour 30 min at 20° C. After incubation the plate was washed three times with PBS, pH 7.4.
Cell binding assay. 75000 cells in volume of 150 μl of medium were added into coated wells and were incubated for 30 minutes at 37° C. […] On following day the absorbance of plate was measured at 560 nm with ELISA-reader (ThermoLabsystems, Multiskan EX). […]

[2] = tested on: mouse fibroblast cell line NIH3T3; assay: Cell binding assay to immobilized targeting agents (control cell line); type: cell-based; details: wells coated at 30 μg/ml, 75000 cells, 30 minutes at 37° C., MTT detection
Experimental: The mouse fibroblast line NIH3T3, called herein also “NIH3T3”, has been described previously by Koga et al. in Gann, 1979, 70: 585-591. The cell line was cultured in DMEM medium adjusted to contain 2 mM L-glutamine, 1% penicillin/streptomycin, and 10% fetal bovine serum.
as §1, §2
(§3) Cell binding assay. 75000 cells in volume of 150 μl of medium were added into coated wells and were incubated for 30 minutes at 37° C. After cell binding, the wells were washed with PBS for 30 minutes. […] On following day the absorbance of plate was measured at 560 nm with ELISA-reader (ThermoLabsystems, Multiskan EX). […]

[3] = tested on: C8161T melanoma cell line; assay: Cell binding assay to immobilized targeting agents; type: cell-based, human; details: wells coated at 30 μg/ml, 75000 cells, 30 minutes at 37° C., MTT detection
Experimental: The human melanoma cell line C8161 has been described previously by Welch et al. in Int. J. Cancer, 1991, 47: 227-237. A more metastatic cell line C8161T, called herein also “C8161T”, was developed by culturing cells from a subcutaneous melanoma tumor developed after inoculation of C8161 melanoma cells on the flank of a nude mouse. The cell line was cultured in DMEM medium adjusted to contain 2 mM L-glutamine, 1% penicillin/streptomycin, and 10% fetal bovine serum.
as §1, §2
Cell binding assay. […] On following day the absorbance of plate was measured at 560 nm with ELISA-reader (ThermoLabsystems, Multiskan EX). […]

[4] = tested on: murine endothelial cell line SVEC4-10; assay: Cell binding assay to immobilized targeting agents (control cell line); type: cell-based, mouse; details: control cell line SVEC4-10; wells coated at 30 μg/ml; 75000 cells, 30 minutes at 37° C.; MTT detection
Experimental: The mouse vascular endothelial cell line SVEC4-10, called herein also “SVEC4-10”, has been described previously by O'Connell et al. in J. Immunol., 1990, 144: 521-525. The cell line was cultured in DMEM medium adjusted to contain 2 mM L-glutamine, 1% penicillin/streptomycin, and 10% fetal bovine serum.
as §1, §2, §3

HCT-15 cell line = assay: Cell binding assay to immobilized targeting agents; type: cell-based, human; details: wells coated at 30 μg/ml, 75000 cells, 30 minutes at 37° C., MTT detection
Experimental: The human colorectal cancer HCT-15 cell line (ATCC: CCL-225), called herein also “HCT-15”, was cultured in RPMI 1640 medium with 2 mM L-glutamine adjusted to contain 1.5 g/L sodium bicarbonate, 4.5 g/L glucose, 10 mM HEPES, and 1.0 mM sodium pyruvate, 1% penicillin/streptomycin, 10% fetal bovine serum.
as §1, §2, §3

[5] = tested on: HSC-3 oral cancer cell line; assay: Cell binding assay to immobilized targeting agents; type: cell-based, human; details: wells coated at 30 μg/ml, 75000 cells, 30 minutes at 37° C., MTT detection
Experimental: The human oral squamous cell carcinoma line HSC-3, called herein “HSC-3” (JCRB Cell Bank 0623, National Institute of Health Sciences, Japan) was cultivated in 1:1 DMEM and Ham's F 12 medium containing 10% FBS, 1% penicillin/streptomycin, L-glutamate and sodium pyruvate and 0.4 ng/ml hydrocortisone.
as §1, §2, §3

| Compound | Peptides selectively binding to lung tumors (enriched in bio-panning) [1] | binding of cells to immobilized targeting agent (absorbance at 560 nm) (HCT-15-LM1 cell line) | binding of cells to immobilized targeting agent (absorbance at 560 nm) [2] | binding of cells to immobilized targeting agent (absorbance at 560 nm) [3] | binding of cells to immobilized targeting agent (absorbance at 560 nm) [4] | binding of cells to immobilized targeting agent (absorbance at 560 nm) (HCT-15 cell line) | binding of cells to immobilized targeting agent (absorbance at 560 nm) [5] | also measured |
| --- | --- | --- | --- | --- | --- | --- | --- | --- |
| [Cu+2].[O-]c1ccccc1C=NO.[O-]c1ccccc1C=NO [CuSAO2, trans-bis(salicylaldoximato)copper(II), reference compound] |  |  |  |  |  |  |  | cell killing (LoVo cell line; 7.5 μg/ml, positive control): 100% |
| CYGFVWGEC (disulfide 1-9 (inferred)) | selectively binding |  |  |  |  |  |  |  |
| CC(C)C[C@@H]1NC(=O)[C@H](Cc2ccccc2)NC(=O)CNC(=O)[C@H](Cc2ccc(O)cc2)NC(=O)[C@@H](NC(=O)[C@H](C)NC(=O)CNC(=O)[C@H](CC(=O)O)NC(=O)[C@H](C)N)CSSC[C@@H](C(=O)NCCOCCOCCOCC(=O)NCCOCCOCCOCC(=O)NCCOCCOCCOCC(N)=O)NC(=O)[C@H](CCC(N)=O)NC(=O)CNC(=O)[C@H](Cc2c[nH]c3ccccc23)NC1=O [HP203] (H-ADGACYGFLWGQC[AEEEA][AEEEA][AEEEA]-NH2; disulfide 5-13; N-terminus assumed) |  |  |  |  |  |  |  | toxic effect on mice (behavior observed) (Athymic nude mice): did not have any toxic effect; toxicity for the tested cell line (viable count, MTT) (LoVo cell line; 5 μg/ml and 138 μg/ml, 24 h, 48 h, 72 h): non-toxic |
| Ac-aYGFVWGEE-(Teg-Glu)2-EAT [MJ012] |  | bind selectively | significantly less binding | bind selectively | significantly less binding | bind selectively | bind selectively |  |
| CYGFLWGQC | selectively binding |  |  |  |  |  |  |  |
| a*YGFVWGEE*-(Teg-Glu)2-EAT ([dA]YGFVWGEE[AEEEA]E[AEEEA]E-Cysteamide; lactam N-9; not fully specified; printed as a*YGFVWGEE*-(Teg-Glu)2-EAT) [MJ013] |  | bind selectively | significantly less binding | bind selectively | significantly less binding | bind selectively | bind selectively |  |
